We go through 19 compounds from ChEMBL document CHEMBL3232857, “Selective and potent morpholinone inhibitors of the MDM2-p53 protein-protein interaction” (J Med Chem, 2014).

A word on the clearance: it is the volume of plasma or blood freed of the substance per unit of time. The term half-life denotes how long it takes for the measured level to halve.

A short description of data set [1]: (§1) Intrinsic clearance in human hepatocytes measured per 10^6 cells. It counts as ADME, cell-based, Hepatocyte. The conditions noted are these: read-out: CLH.
The nature of data set [2]: Clearance in rat at 0.5 mg/kg, iv. Format: ADME, organism-based. More on the design: dose 0.5 mg/kg, route intravenous. The conditions noted are these: in vivo.
Data set [3] is described as follows: Half life in rat at 0.5 mg/kg, iv. More on the design: dose 0.5 mg/kg, route intravenous. To be noted: in vivo. Format: ADME, organism-based.
The test system of data set [4] is Hepatocyte. Put plainly: (§2) Intrinsic clearance in rat hepatocytes measured per 10^6 cells. It counts as ADME, cell-based.
In data set [5] the test system is Hepatocyte. Put plainly: (§3) Intrinsic clearance in mouse hepatocytes measured per 10^6 cells. It counts as ADME, cell-based.
Data set [6] can be described thus: Intrinsic clearance in dog hepatocytes measured per 10^6 cells. It counts as ADME, cell-based, Canis lupus familiaris, Hepatocyte.
Data set [7] in a line: as §2. Format: ADME, cell-based, Hepatocyte. The conditions noted are these: read-out: CLH.
A short description of data set [8]: as §3. To be noted: read-out: CLH. Format: ADME, cell-based, Hepatocyte.
Data set [9] in a line: Drug metabolism in mouse hepatocytes assessed as (2S,3S,4S,5R,6S)-6-(2-((2R,5R,6R)-4-((S)-2-(tert-butylsulfonyl)-1-cyclopropylethyl)-6-(3-chlorophenyl)-5-(4-chlorophenyl)-3-oxomorpholin-2-yl)acetoxy)-3,4,5-trihydroxytetrahydro-2H-pyran-2-carboxylic acid formation at 10 uM by LC-MS/MS analysis. It counts as ADME, cell-based, Hepatocyte.
Data set [10] is described as follows: Drug metabolism in rat hepatocytes assessed as (2S,3S,4S,5R,6S)-6-(2-((2R,5R,6R)-4-((S)-2-(tert-butylsulfonyl)-1-cyclopropylethyl)-6-(3-chlorophenyl)-5-(4-chlorophenyl)-3-oxomorpholin-2-yl)acetoxy)-3,4,5-trihydroxytetrahydro-2H-pyran-2-carboxylic acid formation at 10 uM by LC-MS/MS analysis. Format: ADME, cell-based, Hepatocyte.
Data set [11] can be described thus: Drug metabolism in dog hepatocytes assessed as (2S,3S,4S,5R,6S)-6-(2-((2R,5R,6R)-4-((S)-2-(tert-butylsulfonyl)-1-cyclopropylethyl)-6-(3-chlorophenyl)-5-(4-chlorophenyl)-3-oxomorpholin-2-yl)acetoxy)-3,4,5-trihydroxytetrahydro-2H-pyran-2-carboxylic acid formation at 10 uM by LC-MS/MS analysis. It counts as ADME, cell-based, Canis lupus familiaris, Hepatocyte.
Data set [12] is described as follows: Drug metabolism in cynomolgus monkey hepatocytes assessed as (2S,3S,4S,5R,6S)-6-(2-((2R,5R,6R)-4-((S)-2-(tert-butylsulfonyl)-1-cyclopropylethyl)-6-(3-chlorophenyl)-5-(4-chlorophenyl)-3-oxomorpholin-2-yl)acetoxy)-3,4,5-trihydroxytetrahydro-2H-pyran-2-carboxylic acid formation at 10 uM by LC-MS/MS analysis. It counts as ADME, cell-based, Macaca fascicularis, Hepatocyte.

Data set [13] can be described thus: Drug metabolism in human hepatocytes assessed as (2S,3S,4S,5R,6S)-6-(2-((2R,5R,6R)-4-((S)-2-(tert-butylsulfonyl)-1-cyclopropylethyl)-6-(3-chlorophenyl)-5-(4-chlorophenyl)-3-oxomorpholin-2-yl)acetoxy)-3,4,5-trihydroxytetrahydro-2H-pyran-2-carboxylic acid formation at 10 uM by LC-MS/MS analysis. It counts as ADME, cell-based, Hepatocyte.
The nature of data set [14]: Drug metabolism in mouse hepatocytes assessed as 2-((2R,5R,6R)-6-(3-chlorophenyl)-5-(4-chlorophenyl)-4-((S)-1-cyclopropyl-2-(1-hydroxy-2-methylpropan-2-ylsulfonyl)ethyl)-3-oxomorpholin-2-yl)acetic acid formation at 10 uM by LC-MS/MS analysis. Format: ADME, cell-based, Hepatocyte.
A short description of data set [15]: Drug metabolism in rat hepatocytes assessed as 2-((2R,5R,6R)-6-(3-chlorophenyl)-5-(4-chlorophenyl)-4-((S)-1-cyclopropyl-2-(1-hydroxy-2-methylpropan-2-ylsulfonyl)ethyl)-3-oxomorpholin-2-yl)acetic acid formation at 10 uM by LC-MS/MS analysis. Format: ADME, cell-based, Hepatocyte.
Data set [16] is described as follows: Drug metabolism in dog hepatocytes assessed as 2-((2R,5R,6R)-6-(3-chlorophenyl)-5-(4-chlorophenyl)-4-((S)-1-cyclopropyl-2-(1-hydroxy-2-methylpropan-2-ylsulfonyl)ethyl)-3-oxomorpholin-2-yl)acetic acid formation at 10 uM by LC-MS/MS analysis. It counts as ADME, cell-based, Canis lupus familiaris, Hepatocyte.
The nature of data set [17]: Drug metabolism in cynomolgus monkey hepatocytes assessed as 2-((2R,5R,6R)-6-(3-chlorophenyl)-5-(4-chlorophenyl)-4-((S)-1-cyclopropyl-2-(1-hydroxy-2-methylpropan-2-ylsulfonyl)ethyl)-3-oxomorpholin-2-yl)acetic acid formation at 10 uM by LC-MS/MS analysis. It counts as ADME, cell-based, Macaca fascicularis, Hepatocyte.
Data set [18] is described as follows: Drug metabolism in human hepatocytes assessed as 2-((2R,5R,6R)-6-(3-chlorophenyl)-5-(4-chlorophenyl)-4-((S)-1-cyclopropyl-2-(1-hydroxy-2-methylpropan-2-ylsulfonyl)ethyl)-3-oxomorpholin-2-yl)acetic acid formation at 10 uM by LC-MS/MS analysis. It counts as ADME, cell-based, Hepatocyte.
Data set [19] has as its system Hepatocyte. The description is as §1. Format: ADME, cell-based.

Turning to `CC[C@@H](CN(c1ccccc1)S(=O)(=O)C1CC1)N1C(=O)[C@@H](CC(=O)O)O[C@H](c2cccc(Cl)c2)[C@H]1c1ccc(Cl)cc1`, the hepatocyte CLint in data set [1] worked out at 3.3 µL/min/1e6 cells.

Take `CC[C@@H](CN(c1ccccc1F)S(=O)(=O)C(C)C)N1C(=O)[C@@H](CC(=O)O)O[C@H](c2cccc(Cl)c2)[C@H]1c1ccc(Cl)cc1`: in [1], the hepatocyte CLint is 15 µL/min/1e6 cells.

For the compound `CC[C@@H](CN(c1ccc(F)cc1F)S(=O)(=O)C1CC1)N1C(=O)[C@@H](CC(=O)O)O[C@H](c2cccc(Cl)c2)[C@H]1c1ccc(Cl)cc1`, in [1], the hepatocyte CLint turned out to be 4.8 µL/min/1e6 cells.

As to `C[C@@H](CS(=O)(=O)C(C)(C)C)N1C(=O)[C@@H](CC(=O)O)O[C@H](c2cccc(Cl)c2)[C@H]1c1ccc(Cl)cc1`, in data set [1], the hepatocyte CLint came out at 0.7 µL/min/1e6 cells.

Turning to `CC[C@@H](CS(=O)(=O)C(C)C)N1C(=O)[C@@H](CC(=O)O)O[C@H](c2cccc(Cl)c2)[C@H]1c1ccc(Cl)cc1`, in data set [1], the hepatocyte CLint was 2.1 µL/min/1e6 cells.

Regarding `CC(C)[C@@H](CS(=O)(=O)C(C)(C)C)N1C(=O)[C@@H](CC(=O)O)O[C@H](c2cccc(Cl)c2)[C@H]1c1ccc(Cl)cc1`, the hepatocyte CLint in data set [1] came out at 1.7 µL/min/1e6 cells. The compound also had a clearance in [2] of 1.83 mL/min/kg. In data set [3], this compound had a half-life of 6 h.

For `CC[C@@H](CS(=O)(=O)C(C)(C)C)N1C(=O)[C@@H](CC(=O)O)O[C@H](c2cccc(Cl)c2)[C@H]1c1ccc(Cl)cc1`, the hepatocyte CLint is 1.9 µL/min/1e6 cells in data set [1], 1.8 µL/min/1e6 cells with Hepatocyte [4], 12 µL/min/1e6 cells in the data set with Hepatocyte [5] and 15.5 µL/min/1e6 cells in data set [6]. Further, the clearance in [2] is 3.83 mL/min/kg. The half-life in data set [3] is 4.1 h.

As to `CC[C@@H](CN(c1ccccc1F)S(=O)(=O)C1CC1)N1C(=O)[C@@H](CC(=O)O)O[C@H](c2cccc(Cl)c2)[C@H]1c1ccc(Cl)cc1`, the hepatocyte CLint in data set [1] was less than 0.1 µL/min/1e6 cells.

In the case of `CC[C@@H](CS(=O)(=O)C1COC1)N1C(=O)[C@@H](CC(=O)O)O[C@H](c2cccc(Cl)c2)[C@H]1c1ccc(Cl)cc1`, the hepatocyte CLint in [1] was 6.6 µL/min/1e6 cells.

On to `CC(C)(C)S(=O)(=O)C[C@H](C1CC1)N1C(=O)[C@@H](CC(=O)O)O[C@H](c2cccc(Cl)c2)[C@H]1c1ccc(Cl)cc1`, for which the hepatocyte CLint in data set [1] was 1 µL/min/1e6 cells; in [7], 3 µL/min/1e6 cells; in [8], 6 µL/min/1e6 cells; in [6] (read-out: CLH), 13 µL/min/1e6 cells. In addition, the clearance in data set [2] was 5.83 mL/min/kg. The same compound showed a half-life in data set [3] of 5.7 h. Also, the Drug metabolism result in [9] is listed as “metabolite_detected”; in data set [10], “metabolite_detected”; in data set [11], “metabolite_notdetected”; in [12], “metabolite_detected”; in data set [13], “metabolite_notdetected”; in [14], “metabolite_detected”. Also, the Drug metabolism entry in data set [15] is on record as “metabolite_detected”; in data set [16] it was “metabolite_notdetected”; in data set [17], “metabolite_detected”; in [18], “metabolite_notdetected”.

Consider `CC[C@@H](CS(=O)(=O)C1CCCC1)N1C(=O)[C@@H](CC(=O)O)O[C@H](c2cccc(Cl)c2)[C@H]1c1ccc(Cl)cc1`, for which, in [1], the hepatocyte CLint was found to be 12 µL/min/1e6 cells.

`CC(C)(C)S(=O)(=O)C[C@H](CC(F)(F)F)N1C(=O)[C@@H](CC(=O)O)O[C@H](c2cccc(Cl)c2)[C@H]1c1ccc(Cl)cc1`: in data set [1], the hepatocyte CLint was 4.7 µL/min/1e6 cells. For the same compound, the clearance in [2] was 7.17 mL/min/kg. Further, in [3], the half-life is 4 h.

As to `CC[C@@H](CN(c1ccccc1F)S(C)(=O)=O)N1C(=O)[C@@H](CC(=O)O)O[C@H](c2cccc(Cl)c2)[C@H]1c1ccc(Cl)cc1`, the hepatocyte CLint in data set [1] worked out at 4.7 µL/min/1e6 cells.

Turning to `CC[C@@H](CS(=O)(=O)c1ccccc1)N1C(=O)[C@@H](CC(=O)O)O[C@H](c2cccc(Cl)c2)[C@H]1c1ccc(Cl)cc1`, the hepatocyte CLint in data set [1] turned out to be 10 µL/min/1e6 cells.

Take `CC(C)(C)[C@@H](CS(=O)(=O)C(C)(C)C)N1C(=O)[C@@H](CC(=O)O)O[C@H](c2cccc(Cl)c2)[C@H]1c1ccc(Cl)cc1`: the hepatocyte CLint in data set [1] was 2.1 µL/min/1e6 cells.

As for `CC[C@@H](CS(=O)(=O)N(C)C)N1C(=O)[C@@H](CC(=O)O)O[C@H](c2cccc(Cl)c2)[C@H]1c1ccc(Cl)cc1`, in data set [1], the hepatocyte CLint amounted to 19 µL/min/1e6 cells.

On to `CC[C@@H](CS(=O)(=O)CC(C)(C)C)N1C(=O)[C@@H](CC(=O)O)O[C@H](c2cccc(Cl)c2)[C@H]1c1ccc(Cl)cc1`, for which, in data set [1], the hepatocyte CLint worked out at 8.6 µL/min/1e6 cells.

As for `CC[C@@H](CN(c1ccc(F)cc1)S(=O)(=O)C1CC1)N1C(=O)[C@@H](CC(=O)O)O[C@H](c2cccc(Cl)c2)[C@H]1c1ccc(Cl)cc1`, in data set [1], the hepatocyte CLint worked out at 7 µL/min/1e6 cells.

On to `CC[C@@H](CS(=O)(=O)C(C)(C)C)N1C(=O)[C@@](C)(CC(=O)O)C[C@H](c2cccc(Cl)c2)[C@H]1c1ccc(Cl)cc1`, for which the hepatocyte CLint was determined as 15 µL/min/1e6 cells with Hepatocyte [19], 6.7 µL/min/1e6 cells with Hepatocyte [4], 18 µL/min/1e6 cells in the data set with Hepatocyte [5] and 68 µL/min/1e6 cells in data set [6].
